pKd: −log10 of the molar value. Where two headings read alike, the source gives them in different places.
What was measured:
PAMPA permeability = format: in vitro ADME
[1] = target: DCN1-UBE2M protein-protein interaction (Homo sapiens, UniProt Q96GG9); format: binding
DCN1 and DCN2 = test: Pulse-chase isoform selectivity, NEDD8 transfer from UBE2M to CUL2; format: biochemical, human; conditions: pulse-chase assay against all five DCN family members
RBX1 = RBX1 (Homo sapiens, UniProt P62877); test: DCN1-independent neddylation of cullins catalyzed solely by RBX1; format: biochemical
Chain of RBX1 (P62877 whole entry, species assumed): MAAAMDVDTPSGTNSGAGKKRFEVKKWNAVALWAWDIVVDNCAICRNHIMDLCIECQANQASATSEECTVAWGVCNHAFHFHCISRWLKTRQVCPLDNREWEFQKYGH
Chain of RBX1 (Q13617 whole entry partner, species assumed): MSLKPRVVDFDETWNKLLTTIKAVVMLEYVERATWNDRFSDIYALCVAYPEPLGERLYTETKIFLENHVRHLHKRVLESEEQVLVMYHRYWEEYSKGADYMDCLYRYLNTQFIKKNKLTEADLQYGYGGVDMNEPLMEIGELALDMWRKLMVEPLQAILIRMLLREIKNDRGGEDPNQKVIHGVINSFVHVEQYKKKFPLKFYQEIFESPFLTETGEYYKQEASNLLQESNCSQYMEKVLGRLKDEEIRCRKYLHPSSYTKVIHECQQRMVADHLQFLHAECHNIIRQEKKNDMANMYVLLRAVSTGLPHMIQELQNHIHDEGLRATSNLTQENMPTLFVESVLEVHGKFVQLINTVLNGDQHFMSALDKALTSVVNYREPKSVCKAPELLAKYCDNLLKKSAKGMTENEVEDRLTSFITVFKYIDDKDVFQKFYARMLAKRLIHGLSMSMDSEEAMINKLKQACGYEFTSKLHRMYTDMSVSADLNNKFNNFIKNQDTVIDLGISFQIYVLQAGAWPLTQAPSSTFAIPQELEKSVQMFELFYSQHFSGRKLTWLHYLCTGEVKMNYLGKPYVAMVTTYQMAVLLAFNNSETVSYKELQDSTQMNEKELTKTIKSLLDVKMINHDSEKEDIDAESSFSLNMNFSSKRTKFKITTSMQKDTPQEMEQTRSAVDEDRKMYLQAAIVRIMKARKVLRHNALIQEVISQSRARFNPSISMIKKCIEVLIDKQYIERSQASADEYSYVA

HCC95 cells = test: In vitro proliferation assay, HCC95 cells; format: cell-based
NEDD8 E1 enzyme = target: T1, NEDD8 E1 enzyme (Homo sapiens, UniProt Q13564+Q8TBC4); test: Inhibition of the NEDD8 E1 activating enzyme; format: biochemical; conditions: concentrations as high as 50 μM
T1 sequence (Q8TBC4 1-463): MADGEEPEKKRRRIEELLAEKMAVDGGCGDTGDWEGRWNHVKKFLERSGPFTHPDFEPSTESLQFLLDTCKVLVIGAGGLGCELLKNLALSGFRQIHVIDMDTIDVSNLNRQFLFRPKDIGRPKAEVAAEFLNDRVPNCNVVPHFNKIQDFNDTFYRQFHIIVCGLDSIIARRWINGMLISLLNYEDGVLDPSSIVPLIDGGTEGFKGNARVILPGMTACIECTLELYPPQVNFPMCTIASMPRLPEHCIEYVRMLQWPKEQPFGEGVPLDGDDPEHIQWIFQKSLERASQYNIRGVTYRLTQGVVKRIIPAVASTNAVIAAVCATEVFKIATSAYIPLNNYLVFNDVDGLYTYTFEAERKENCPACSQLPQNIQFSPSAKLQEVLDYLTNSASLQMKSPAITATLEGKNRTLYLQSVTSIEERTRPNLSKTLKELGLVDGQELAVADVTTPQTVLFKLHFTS
T1 sequence (Q13564 1-534): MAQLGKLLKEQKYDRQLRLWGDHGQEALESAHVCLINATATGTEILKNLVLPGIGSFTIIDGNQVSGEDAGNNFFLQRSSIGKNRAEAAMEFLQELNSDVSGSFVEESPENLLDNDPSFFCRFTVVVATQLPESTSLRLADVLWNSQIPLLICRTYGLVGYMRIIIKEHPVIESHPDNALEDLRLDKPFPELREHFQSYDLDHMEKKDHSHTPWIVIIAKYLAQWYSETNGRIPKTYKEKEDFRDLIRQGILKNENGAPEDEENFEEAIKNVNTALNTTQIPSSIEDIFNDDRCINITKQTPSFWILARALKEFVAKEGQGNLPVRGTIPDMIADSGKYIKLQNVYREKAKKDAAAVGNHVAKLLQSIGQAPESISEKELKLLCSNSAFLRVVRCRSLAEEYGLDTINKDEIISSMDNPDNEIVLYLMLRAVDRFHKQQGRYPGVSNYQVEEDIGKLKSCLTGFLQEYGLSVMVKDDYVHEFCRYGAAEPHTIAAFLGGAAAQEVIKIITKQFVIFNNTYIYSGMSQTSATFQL

DCN1 [2] = target: T2, DCN1 (Homo sapiens, UniProt Q96GG9); format: biochemical
Target sequence in this assay (Q96GG9 62-259 limits assumed): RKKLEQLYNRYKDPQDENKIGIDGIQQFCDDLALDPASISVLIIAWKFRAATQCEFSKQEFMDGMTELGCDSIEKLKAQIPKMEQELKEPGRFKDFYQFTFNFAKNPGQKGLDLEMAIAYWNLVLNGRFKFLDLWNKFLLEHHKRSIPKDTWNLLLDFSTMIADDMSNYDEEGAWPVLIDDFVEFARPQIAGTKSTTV

[3] = tested on: cullin neddylation in HCC95 cells; test: Western blot for inhibition of cellular cullin neddylation in HCC95 cells; format: cell-based; conditions: for Inhibition of cullin neddylation in HCC95 cells / Steady-state level of cullin neddylation for CUL1 and CUL3 / Steady-state level of cullin neddylation for CUL2, CUL4A and CUL5: 20 μM; for Inhibition of cullin neddylation in HCC95 cells: dosing at T = 0 and 24 hr, 48 hours; for Steady-state level of cullin neddylation for CUL1 and CUL3 / Steady-state level of cullin neddylation for CUL2, CUL4A and CUL5: HCC95 cells; for Accumulation of well-recognized proteasomal targets (immunoblot): acute pharmacological inhibition, Supplementary Figure 6
DCN1 [4] = target: T2, DCN1; format: cell-based; conditions: HCC95 cells, 10 μM, 1 h, 53 °C
Target sequence in this assay (Q96GG9 whole entry): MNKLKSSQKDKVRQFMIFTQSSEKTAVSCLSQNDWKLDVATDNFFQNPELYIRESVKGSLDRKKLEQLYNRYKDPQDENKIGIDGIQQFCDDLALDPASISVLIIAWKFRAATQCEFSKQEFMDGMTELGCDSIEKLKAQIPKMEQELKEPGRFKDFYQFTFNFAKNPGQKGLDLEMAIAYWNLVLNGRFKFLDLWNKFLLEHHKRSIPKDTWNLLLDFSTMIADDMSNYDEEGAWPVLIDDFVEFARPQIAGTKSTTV

DCN3-5 = test: Pulse-chase isoform selectivity, NEDD8 transfer from UBE2M to CUL2; format: biochemical, human; conditions: at 50 μM
[5] = tested on: total cellular ubiquitination; conditions: cited from earlier work
[6] = target: UBE2M (N-acetylated) (Homo sapiens) (UniProt P61081); conditions: cited from earlier work
Chain of UBE2M (N-acetylated) (Homo sapiens) (P61081 whole entry): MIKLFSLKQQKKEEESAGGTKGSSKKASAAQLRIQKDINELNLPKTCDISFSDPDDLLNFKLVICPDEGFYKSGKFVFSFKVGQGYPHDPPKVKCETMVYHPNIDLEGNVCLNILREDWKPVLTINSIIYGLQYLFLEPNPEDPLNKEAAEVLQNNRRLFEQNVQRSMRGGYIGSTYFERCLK

Chain of DCN1-UBE2M protein-protein interaction (Q96GG9 62-259 limits assumed): as the sequence (Q96GG9 62-259 limits assumed) above
Chain of DCN1 (from UniProt Q96GG9) (Q96GG9 whole entry): as the sequence (Q96GG9 whole entry) above

## Cc1ccccc1CN1CCC(NC(=O)Nc2cccc(C(F)(F)F)c2)CC1 [Compound 13]
PAMPA permeability
  Pampa: 1200 ± 35 ×10^−6 cm/s

## O=C(Nc1cccc(C(F)(F)F)c1)NC1CCN(Cc2ccccc2F)CC1 [Compound 15]
PAMPA permeability
  Pampa: 1500 ± 1 ×10^−6 cm/s

## Cc1cccc(CN2CCC(NC(=O)Nc3cccc(C(F)(F)F)c3)CC2)c1 [Compound 16]
PAMPA permeability
  Pampa: >0.0022 cm/s

## O=C(Nc1cccc(C(F)(F)F)c1)NC1CCN(Cc2cccc(Cl)c2)CC1 [Compound 17]
PAMPA permeability
  Pampa: 1700 ± 1 ×10^−6 cm/s

## O=C(Nc1cccc(C(F)(F)F)c1)NC1CCN(Cc2cccc(F)c2)CC1 [Compound 18]
PAMPA permeability
  Pampa: >0.0022 cm/s

## Cc1ccc(CN2CCC(NC(=O)Nc3cccc(C(F)(F)F)c3)CC2)cc1 [Compound 19]
PAMPA permeability
  Pampa: >0.0022 cm/s

## O=C(Nc1cccc(C(F)(F)F)c1)NC1CCN(Cc2ccc(Cl)cc2)CC1 [Compound 20]
PAMPA permeability
  Pampa: 1300 ± 43 ×10^−6 cm/s

## O=C(Nc1cccc(C(F)(F)F)c1)NC1CCN(Cc2ccc(F)cc2)CC1 [Compound 21]
PAMPA permeability
  Pampa: >0.0022 cm/s

## O=C(Nc1ccccc1)NC1CCN(Cc2ccccc2)CC1 [Compound 23]
PAMPA permeability
  Pampa: 1400 ± 250 ×10^−6 cm/s

## Cc1ccc(NC(=O)NC2CCN(Cc3ccccc3)CC2)cc1Cl [Compound 25]
PAMPA permeability
  Pampa: >0.0022 cm/s

## Cc1cccc(NC(=O)NC2CCN(Cc3ccccc3)CC2)c1 [Compound 26]
[1]
  Potency in the TR-FRET assay (in words): practically inactive

## Cn1nccc1-c1cccc(NC(=O)NC2CCN(Cc3ccccc3)CC2)c1 [Compound 32]
PAMPA permeability
  Pampa: >0.0022 cm/s

## CC(=O)O[C@H]1CN(Cc2ccccc2)CC[C@@H]1NC(=O)Nc1cccc(C(F)(F)F)c1 [Compound 34, (3S,4S)-1-benzyl-4-(3-(3-(trifluoromethyl)phenyl)ureido)piperidin-3-yl acetate]
[1]
  Potency in the TR-FRET assay (in words): did not possess improved potency compared to our initial HTS hit 1

## CCCN1CCC(N(CCC)C(=O)Nc2cccc(C(F)(F)F)c2)CC1 [Compound 35]
PAMPA permeability
  Pampa: 1600 ±170 ×10^−6 cm/s

## CCCCN(C(=O)Nc1cccc(C(F)(F)F)c1)C1CCN(CCC)CC1 [Compound 36]
PAMPA permeability
  Pampa: >0.0022 cm/s

## CCCN1CCC(N(CC(C)C)C(=O)Nc2cccc(C(F)(F)F)c2)CC1 [Compound 37]
PAMPA permeability
  Pampa: 1900±200 ×10^−6 cm/s

## CCCN1CCC(N(CCC(C)C)C(=O)Nc2cccc(C(F)(F)F)c2)CC1 [Compound 38]
PAMPA permeability
  Pampa: 1500 ±5.4 ×10^−6 cm/s

## CCCN1CCC(N(CCOC)C(=O)Nc2cccc(C(F)(F)F)c2)CC1 [Compound 39]
PAMPA permeability
  Pampa: 1600 ± 1 ×10^−6 cm/s

## CCCN1CCC(N(CC2CCCCC2)C(=O)Nc2cccc(C(F)(F)F)c2)CC1 [Compound 40]
PAMPA permeability
  Pampa: >0.0022 cm/s

## CCCN1CCC(N(Cc2ccco2)C(=O)Nc2cccc(C(F)(F)F)c2)CC1 [Compound 41]
PAMPA permeability
  Pampa: >0.0022 cm/s

## CCCN1CCC(N(Cc2ccccc2)C(=O)Nc2cccc(C(F)(F)F)c2)CC1 [Compound 42]
DCN1 and DCN2
  Selectivity for inhibiting neddylation activity of DCN1 and DCN2 over DCN3-5: selective and approximately equipotent inhibition
PAMPA permeability
  Pampa: 1800 ± 1 ×10^−6 cm/s

## CCCN1CCC(N(Cc2cccnc2)C(=O)Nc2cccc(C(F)(F)F)c2)CC1 [Compound 43]
PAMPA permeability
  Pampa: 1300 ±79 ×10^−6 cm/s

## CCCN1CCC(N(Cc2ccc3c(c2)OCO3)C(=O)Nc2cccc(C(F)(F)F)c2)CC1 [Compound 45, 1-(benzo[d][1,3]dioxol-5-ylmethyl)-1-(1-propylpiperidin-4-yl)-3-(3-(trifluoromethyl)phenyl)urea]
PAMPA permeability
  Pampa: >0.0022 cm/s

## CCCN1CCC(N(Cc2cc(F)cc(C(F)(F)F)c2)C(=O)Nc2cccc(C(F)(F)F)c2)CC1 [Compound 46]
RBX1
  Inhibition of DCN1-independent neddylation of cullins catalyzed solely by RBX1: do not inhibit
PAMPA permeability
  Pampa: >0.0022 cm/s

## O=C(Nc1cccc(C(F)(F)F)c1)N(Cc1ccccc1)C1CCNCC1 [Compound 47]
PAMPA permeability
  Pampa: >0.0022 cm/s

## CCCCN1CCC(N(Cc2ccccc2)C(=O)Nc2cccc(C(F)(F)F)c2)CC1 [Compound 49, 1-benzyl-1-(1-butylpiperidin-4-yl)-3-(3-(trifluoromethyl)phenyl)urea]
HCC95 cells
  Growth inhibition of monolayer cultures at 20 μM: only minimally growth inhibitory
NEDD8 E1 enzyme
  Inhibition of the E1 activating enzyme for NEDD8: do not inhibit
DCN1 [2]
  Inhibition of DCN1 stimulated NEDD8 transfer from UBE2F to the cullins: inhibit
[3]
  Inhibition of cullin neddylation in HCC95 cells: inhibited neddylation
  Steady-state level of cullin neddylation for CUL1 and CUL3: selectively decreases
  Steady-state level of cullin neddylation for CUL2, CUL4A and CUL5: relatively unaffected
  Accumulation of well-recognized proteasomal targets (immunoblot): failed to cause gross accumulation
RBX1
  Inhibition of DCN1-independent neddylation of cullins catalyzed solely by RBX1: do not inhibit
DCN1 [4]
  Thermal stability of the DCN1 protein (CETSA): clearly enhanced
PAMPA permeability
  Pampa: >0.0022 cm/s

## CCCCCN1CCC(N(Cc2ccccc2)C(=O)Nc2cccc(C(F)(F)F)c2)CC1 [Compound 50]
PAMPA permeability
  Pampa: 1400 ± 540 ×10^−6 cm/s

## CCCC(C)N1CCC(N(Cc2ccccc2)C(=O)Nc2cccc(C(F)(F)F)c2)CC1 (stereo not shown) [Compound 52, 1-benzyl-1-(1-(pentan-2-yl)piperidin-4-yl)-3-(3-(trifluoromethyl)phenyl)urea]
HCC95 cells
  Growth inhibition of monolayer cultures at 20 μM: only minimally growth inhibitory
NEDD8 E1 enzyme
  Inhibition of the E1 activating enzyme for NEDD8: do not inhibit
DCN1 [2]
  Inhibition of DCN1 stimulated NEDD8 transfer from UBE2F to the cullins: inhibit
[3]
  Inhibition of cullin neddylation in HCC95 cells: inhibited neddylation
  Steady-state level of cullin neddylation for CUL1 and CUL3: selectively decreases
  Steady-state level of cullin neddylation for CUL2, CUL4A and CUL5: relatively unaffected
  Accumulation of well-recognized proteasomal targets (immunoblot): failed to cause gross accumulation
RBX1
  Inhibition of DCN1-independent neddylation of cullins catalyzed solely by RBX1: do not inhibit
DCN1 [4]
  Thermal stability of the DCN1 protein (CETSA): clearly enhanced
PAMPA permeability
  Pampa: 1400 ±39 ×10^−6 cm/s
DCN3-5
  Inhibition of neddylation activity of DCN3-5: slight activity

## O=C(Nc1cccc(C(F)(F)F)c1)N(Cc1ccccc1)C1CCN(CC2CCCCC2)CC1 [Compound 58]
PAMPA permeability
  Pampa: <1e-06 cm/s

## CCCS(=O)(=O)N1CCC(N(Cc2ccccc2)C(=O)Nc2cccc(C(F)(F)F)c2)CC1 [Compound 61]
PAMPA permeability
  Pampa: <1e-06 cm/s

## CCCCS(=O)(=O)N1CCC(N(Cc2ccccc2)C(=O)Nc2cccc(C(F)(F)F)c2)CC1 [Compound 62]
PAMPA permeability
  Pampa: <1e-06 cm/s

## O=C(Nc1cccc(C(F)(F)F)c1)N(Cc1ccccc1)C1CCN(Cc2cccnc2)CC1 [Compound 67]
PAMPA permeability; mean ± SD
  Pampa: >0.0022 cm/s

## O=C(Nc1cccc(C(F)(F)F)c1)N(Cc1ccccc1)C1CCN(Cc2ccc(F)cc2)CC1 [Compound 68]
PAMPA permeability; mean ± SD
  Pampa: >0.0022 cm/s

## O=C(Nc1cccc(C(F)(F)F)c1)N(Cc1ccccc1)C1CCN(Cc2ccc3c(c2)OCO3)CC1 [Compound 70]
PAMPA permeability; mean ± SD
  Pampa: >0.0022 cm/s

## O=C(Nc1cccc(C(F)(F)F)c1)N(Cc1ccccc1)C1CCN(Cc2ccc3c(c2)OCCO3)CC1 [Compound 71]
PAMPA permeability; mean ± SD
  Pampa: >0.0022 cm/s

## CC(C)(C)N1CCC(N(Cc2ccc3c(c2)OCO3)C(=O)Nc2cccc(C(F)(F)F)c2)CC1 [Compound 73]
RBX1
  Inhibition of DCN1-independent neddylation of cullins catalyzed solely by RBX1: do not inhibit

## CCCCN1CCC(N(Cc2ccccc2)C(=O)Nc2cccnc2)CC1 [NAcM-NEG, reference compound]
DCN1 [4]
  Thermal stability of the DCN1 protein (CETSA): largely degraded

## NS(=O)(=O)OC[C@@H]1C[C@@H](n2ccc3c(N[C@H]4CCc5ccccc54)ncnc32)C[C@@H]1O [Pevonedistat, reference compound]
[5]
  Reduction of total cellular ubiquitination: 10-20%
[3]; MLN4924 1 μM, single dose, 48 hours (Figure 7)
  Inhibition of cullin neddylation in cells by positive control: completely inhibits all cullin neddylation

## DCN1 (from UniProt Q96GG9)
[6]
  pKd: 6.00
